“Also recorded” adds a separate entry of the source.
B1: Pant promoter with multi-copy antR: anthranilate-inducible promoter of P. fluorescens with the AntR activator coding sequence, a1-c1395 of SEQ ID NO:13 (nucleic acid)
DNA: AGCTTGCATGCCTGCAGGTTTAAACAGTCGACTCTAGACTTAATTAACTATCGCAGGCAAGCCAGCTCCCACAGATTGTTTTTCATCCAGTTCAAGTAATGCGCAGGCGCTTGCGCTGCAATGTCTGGCTGGGCGACTCATCGAACAGCTTGCGGTACTCCGCCGAAAACCGCCCCAAATGCGTAAACCCCCAACCCAGGGCGATTTCAGAGATGGTGCGGATCGAGCCCTGCTCCAGAATTTCTTGGCGCACCGCCCCCAACCGATGCTTCTTCAAATACGACATGGGCGACAGTGCGAAGTACTTGCGAAACGCATCGAACAGTTTGAAACGCGACACGCCCGCCGCCGCTTCCAGGTCTTCCAGGTGCAGCGCTTCACGGGCGTTGTCGTGGATAAATTGCCGCGCGCGGATCAGGTAGTGCGGCAGTTTCACCCCCAGCACGTCGCGCAGTTCTTCGGAGTAGTTATTCGGTTGGGCCAGGATCAGGCCCTTGATCAGCGAGCTTTCCAGGTCGCGAGTAAACGCCGCCTGCTCGTACAGTTCGCTGCTGCGCTCCAGTTCGGCGATGAAATAACGCGCCATGCGCCACCACGAAGCCGGTGCTCCGTCCACAGCATCCATCACCGACTCAAAGCGCAGCGGCGCATCAATGGGCCGTTGCAGCAAACCTTCCAGCGACTCGCTCATCGCCGCACGGGTGATTACCACCTGCAACTTGCGGCAGTCACCGGAAATCGCCAGCACCTGATGCTCATTGGGCGAAATGATCACGCCTTGGTCGCGGTTGGAACTGAGACGTTCACCGTTCTTGCTCAGCTCCTGCTCGCCCACCAGTGGCAGGCTCAAGCTGTAGCTGCTGAAGTGCTCGGCGTCTTCGATGTCGATGGTCACATCAGTGCCGTACTCGATCACGCCCAGGGTGGTGGCGCGGGATTTGAACACGTTGGCGCTGTGGTGAAAGCGCAGGCGCTCGGGGGTTGCCGTCGCCAGGCGATGGGGCCCGCAGATGCCGGACATCCAGCTGCGCGCGCCTTCCAGGTCGAAGCGTTGAATATGAATATCGCGTGTCTGACTAGTCATCAGGGTGCACCCACGGCGGTTAGGCGTTTGCGCGCTCTGACGGCGCGTCGTTGAACCTCGACAGCAAGTTCCAGGCCACGCCAGTGCAGTTCTCACTGGGTGGATAGCAACGGTCGACTATGTGGATAAACCCCAGAGTTTTGCGACCATCGCCCGCCATCACAGTAGCGCATGCCGTCACCGGCGCGCACCGTCATGGGTATTTGCCGCCCAACTTTGCGGCCTACGTTCCCCCATTAAGCGGATAGCCCGCCACCGCATCGCAGCCGCTTAATGGCTCACCGTTTAGCCATGATCAAAAGGTGCCTCCC
modifications: Construct containing the pDOW1057 Pant-Pben tandem promoter

Legend:
Assay type in all cases: cell-based, Pseudomonas fluorescens
[1] = test system: Pant promoter (Pant713, antR/Pant); test: Anthranilate promoter (Pant) reporter gene induction (lacZ / phoA); conditions: for induction of the anthranilate promoter: P. fluorescens, reporter gene lacZ or phoA
Description: (§1) Cell growth for induction: Strains of interest were grown overnight (at 30° C. with shaking at 250 rpm) in 1×M9 minimal salts medium (diluted from a 5× preparation purchased from Fisher Scientific, Pittsburgh, Pa.) supplemented with 0.5% or 1% (w/v) glucose, 1 mM MgSO4, and trace elements (for trace elements, the present examples used a solution containing salts of sodium, magnesium, manganese, iron, and cobalt, all at less than 0.5 mg/mL final concentration). Strains were then subcultured 1:4 in the same medium to a volume of 10 or 20 mL and then induced with 0-10 mM concentrations of anthranilate or benzoate, as indicated.
(§2) Strains of interest were grown overnight at 30° C. in 1×M9 medium supplemented with 0.5% or 1% (w/v) glucose, 1 mM MgSO4, and 5L/L trace elements (as described above), and optionally tetracycline at 15 ug/mL. These were then subcultured 1:4 or 1:5 in the same medium and then induced with indicated concentrations of anthranilate, benzoate, or other inducer, for a desired amount of time (e.g., for 2, 4, 6, 8, 12, or 24 hours, or overnight). Samples were taken at indicated times and those samples were assayed for reporter gene activity. Results are reported at time points taken at a given number of hours post-induction; time points are indicated by either a numeral for the number of hours, and in some cases this number is immediately preceded by the letter “I” indicating post-induction.
(§3) We prepared enough of the following assay medium to provide for each sample well of a 96-well plate (i.e. for all those wells used, with at least one well being used for each time point measured during the reaction course for each sample): 152 μL Z buffer (0.06M Na2HPO4.7H2O, 0.04M NaH2PO4.H2O, 0.01M KCl, 0.001M MgSO4.7H2O)+8 μL 1M β-mercaptoethanol. For each 900 μL of the resulting mix, we added one drop of 0.1%SDS and two drops of CHCl3, mixed (using a vortex-type mixer), and then added 144 μL thereof to each well. 16 μL of cells were then added to each well and the plate sealed with a plastic plate sealer. The plate was then mixed (by vortex) for 10 seconds, and then equilibrated to incubation temperature (room temperature) for 5 minutes. 50 μL 4 mg/mL ONPG was then added. When a significant yellow color developed, 90 μL stop solution (1M Na2CO3) was added and the reaction time recorded. The resulting color intensity for each sample was then read at A420 and A550. In addition, the cell density of each culture providing the 16 μL of cells used in each sample was read at A600. Miller Units were calculated as follows: • 1000 * ((A420−(1.75*A550))/(time(in minutes) *0.1 * A600)). Alkaline Phosphatase Assas
(§4) For this assay we prepared SIGMA FAST (p-nitrophenyl phosphate (PNPP) substrate, from Sigma-Aldrich Corp., St. Louis, Mo.) by adding one of each tablet provided by the manufacturer (one table each PNPP and Tris; stored at −20° C.) to 20 mL ddH2O, giving a final concentration of 1 mg/mL PNPP and 0.2M Tris. At each time point, for each sample, 50 μL SIGMA FAST substrate was combined with 5 μL of cells. The result was then incubated at room temperature for 30 minutes. The resulting color intensity for each sample was then read at A410. In addition, the cell density of each culture providing the 5 μL of cells used in each tested sample was read at A600 (i.e. the cell cultures were read in a 96 well plate). The value of A410/(0.1 * A600) was then calculated to express alkaline phosphatase activity/cell.
Anthranilate, like benzoate, is an inexpensive low toxic compound that can be utilized by P. fluorescens, making it an ideal compound to investigate as an inducer. […]. […] Expansion of the promoter clone to include the transcriptional activator gene 5′ of the antA open reading frame (ORF) increased expression levels of the lacZ fusion. […]

[2] = test system: Pant-Pben tandem promoter; test: Pant-Pben tandem promoter reporter gene induction (lacZ); conditions: for induction of the Pant-Pben tandem promoter: P. fluorescens
Description: as §1, §2, §3
However, unlike the catabolite-repressed Pben promoter, the activity of the Pant promoter was not inhibited during fermentation A fusion of these two promoters was created by linking them together, as shown in SEQ ID NO:3, i.e. by cloning a fragment antR and Pant, upstream of the Pben278 promoter fused to lacZ.

[3] = test system: Pben promoter (Pben509, Pben278); test: Benzoate promoter (Pben) reporter gene induction (lacZ β-galactosidase / phoA alkaline phosphatase); conditions: for induction of the benzoate promoter (Pben509, Pben278): P. fluorescens MB101, reporter gene lacZ or phoA
Description: as §1, §2, §3, §4
Benzoate-inducible promoter activity was tested by fusing the DNA fragment containing the putative promoter sequence of Pben509, or of Pben278 (described below), upstream of an easily assayable reporter gene (i.e. either lacZ, which encodes β-galactosidase and was used as the chief reporter gene, orphoA). The resulting plasmid was transformed into P. fluorescens MB101. […]

Molecule	induction of the anthranilate promoter [1]	induction of the Pant-Pben tandem promoter [2]	induction of the benzoate promoter (Pben509, Pben278) [3]	also measured
Nc1c(Cl)cccc1C(=O)O [3-chloro-anthranilate]	inducible			
Nc1cc(Cl)ccc1C(=O)O [4-chloro-anthranilate]	inducible			
Nc1ccc(Cl)cc1C(=O)O [5-chloro-anthranilate]	inducible			
Nc1cccc(Cl)c1C(=O)O [6-chloro-anthranilate, 6-chloroanthranilate]	inducible			
Nc1ccccc1C(=O)O [anthranilic acid]	inducible	inducible		
O=C(O)c1ccccc1 [benzoic acid]		inducible	inducible	
Oc1ccccc1O [catechol]			fail to induce	
O=C(O)/C=C\C=C/C(=O)O [cis, cis-muconate]			fail to induce	
Cc1cccc(C(=O)O)c1 [m-toluic acid]			inducible	
Cc1ccccc1C(=O)O [o-toluate]	induce this promoter as well as does anthranilate	induce this promoter as well as does anthranilate		
Nc1ccccc1C(=O)[O-].[Na+] [sodium anthranilate]	inducible	inducible		strength of the tandem antR/Pant-Pben278 construct upon induction, compared with component promoter alone ([2]; lacZ fusion, in the presence of glucose): improved
O=C([O-])c1ccccc1.[Na+] [sodium benzoate]			inducible; also recorded: show β-galactosidase or alkaline phosphatase activity	induction of the benzoate promoter (Pben509, Pben278) ([3]; listed as benzoate): benzoate was indeed the inducer for Pben; induction of expression of exogenous genes, benzoate promoter ([3]; induced with 5 mM sodium benzoate): about 250 fold
B1				relative strength of promoter versus Pben278 promoter ([1]; Pant with multi-copy antR): approximately ⅕
